Measurements reported in patent US20190054097A1, “COMPOSITIONS TARGETING SENESCENT CELLS AND THE USES THEREOF” (BioVentures, LLC, priority 2016, published 2019).

Experiments:
[1] = test system: platelets; settings: administration to subjects; platelets rely on Bcl-xl for survival; cited from earlier work
[2] = test system: senescent osteocytes; test: Five-day administration to aged mice: western blot and qPCR of osteocyte-enriched femoral bone shafts; assay type: in vivo, 24-month-old female mice
Protocol: ABT-263 or its derivative Bcl-PROTAC (or vehicles) were administered by daily i.p. injections for 5 days to 24-month-old female mice. […] We have shown that γ-H2AX, p16, GATA4, RANKL and MMP-13 increase, while OPG and Wnt10b decrease with age in bone of female and male mice (Piemontese et al., 2017 JCI Insight).
Osteocyte-enriched femoral cortical bone was prepared by removing the ends, flushing the bone marrow by centrifugation, and removal of surface cells by scraping with a scalpel. Bone fragments were immediately frozen in liquid nitrogen and pulverized. Proteins were extracted with a buffer containing 20 mM Tris-HCL, 150 mM NaCl, 1% Triton X-100, protease inhibitor mixture, and phosphatase inhibitor cocktail (Sigma-Aldrich) on ice for 30 min and then keep on −80° C. for overnight. The protein concentration of the bone extract was determined using the DC Protein Assay Kit (Bio-Rad). The extracted protein ([…] per sample) was subjected to 15% SDS-PAGE gels and transferred electrophoretically onto PVDF membranes. The membranes were blocked in 5% fat-free milk/Tris-buffered saline for 120 min and incubate with each primary antibody followed by secondary antibodies conjugated with horseradish peroxidase. […] Bound antibodies were detected with ECL reagents (Millipore), and imaged and quantified with a VersaDoc™ imaging system (Bio-Rad).
(§1) Total RNA was extracted with Ultraspec (Biotecx Laboratories) and reverse-transcribed using the High-Capacity cDNA Archive Kit (Applied Biosystems) according to the manufacturer's instructions. TaqMan quantitative real-time PCR was performed using the following primers from Applied Biosystems: Rankl (Mm00441908_m1); Mmp-13 (Mm00439491_m1); OPG (Mm00435452_m1); Wnt10b (Mm00442104_m1); IL-1α (Mm99999060_m1); Sdf-1 (Mm00445553_m1); p21 (Mm00432448_m1). Target gene expression was calculated by normalizing to the housekeeping gene ribosomal protein S2 (Mm00475528_m1) using the ΔCt method (Livak and Schmittgen, 2001).

[3] = test system: senescent cells; test: Cisplatin-induced peripheral neuropathy (CIPN) in p16-3MR transgenic mice, Von Frey assay and Hot Plate Analgesia Meter; assay type: in vivo; settings: GCV 25 mg/kg/day or ABT263 50 mg/kg/day i.p., 5 days per cycle, 2 cycles, FIG. 8-11
Protocol: (§2) CIPN was induced in young adult male and female p16-3MR mice by intraperitoneal (i.p.) injection of cisplatin (Lake Zurich, Ill., USA) at 2.3 mg/kg/d for 5 days per cycle for 2 cycles with an interval of 5 days between the cycles. The induction of CIPN was measured by analyzing the mechanical sensitivity using the Von Frey assay the day before Cisplatin treatment and on various day after Cisplatin treatment. N=5-6 mice per group.
Mice were treated as described in FIG. 8. The induction of CIPN was measured by analyzing the sensitivity to thermal allodynia using the Hot Plate Analgesia Meter on various day after Cisplatin treatment. N=5-6 mice per group.
To determine the effect of senescent cells on the induction of CIPN, cisplatin-treated mice were administered with vehicle, ganciclovir (GCV) at 25 mg/kg/day for 5 days per cycle for 2 cycles with an interval of 17 days between the cycles, or ABT263 at 50 mg/kg/day for 5 days per cycle for 2 cycles with an interval of 17 days between the cycles by i.p. injection at the indicated times after cisplatin treatment. […] The induction of CIPN was measured by analyzing the mechanical sensitivity using the Von Frey assay (FIG. 8 and FIG. 9) and by analyzing the sensitivity to thermal allodynia using the Hot Plate Analgesia Meter (FIG. 10 and FIG. 11) the day before Cisplatin treatment and on various day after Cisplatin treatment.

[4] = test system: osteoclast progenitors; test: Five-day administration to aged mice: osteoclast differentiation from bone marrow macrophages; assay type: in vivo, 24-month-old female mice; settings: bone marrow macrophages from treated mice, cultured with RANKL and M-CSF for 5 days, FIG. 15A and 15B
Protocol: In summary, short-term administration of ABT-263 or Bcl-PROTAC to aged mice decreases senescent osteoprogenitors and osteocytes, as well as the SASP and osteoclastogenesis.
Bone marrow cells were obtained by flushing the tibiae and femurs from the 24 month-old female mice with α-MEM medium (Invitrogen). After the red blood cells were removed with ACK buffer (0.01 mM EDTA, 0.011 M KHCO3, and 0.155 M NH4Cl, pH 7.3), we suspended the cells in α-MEM complete media containing 10% (v/v) fetal bovine serum, 100 U ml-1 penicillin, and 100 μg ml-1 streptomycin and incubated the cells for 24 h in the presence of 10 ng ml-1 M-CSF. We collected the non-adherent cells and cultured with 30 ng ml-1 M-CSF for 3 days to generate bone marrow-derived macrophages. […] We fixed the osteoclast cultures with 10% neutral buffered formalin for 15 min and stained for tartrate-resistant acid phosphatase (TRAP) using the Leukocyte Acid Phosphatase Assay Kit, following the manufacturer's instructions (Sigma-Aldrich). For all assays we plated cells in triplicate.

[5] = test system: bone marrow stromal cells; test: Five-day administration to aged mice: ex vivo bone marrow stromal cell cultures (qPCR, osteoblast and adipocyte differentiation); assay type: in vivo, 24-month-old female mice
Excerpt: We also isolated bone marrow stromal cells from mice treated with vehicle or the senolytics and cultured them for 5 days.
Conversely, bone marrow cells from the mice treated with senolytics cultured in the presence of adipogenic medium had decreased adipogenic potential (FIG. 14C).
as §1
Total bone marrow cells pooled from 3-5 mice from each group were cultured with 20% FBS, 1% PSG and […] of ascorbic acid in 10-cm culture dishes for 5 days. Half of the medium was replaced every 3 days. Bone marrow-derived osteoprogenitor cells were re-plated into 12-well plates and cultured with […] of ascorbic acid and 10 mM b-glycerophosphate for 21 days. Mineralized matrix was stained with 40 mM Alizarin Red solution.
Bone marrow-derived stromal cells were cultured to 70% confluence, and the media supplemented with rosiglitazone (5 nM/m1) or with 3.3% BSA in PBS as vehicle control. Medium containing ligand was changed every 2 d for 11 d. Cells were fixed in 10% formalin in PBS, rinsed, and stained for 30 min with 0.15% Oil Red 0 (Sigma) in a 55:45 mix of isopropanol and water. Cells were counterstained with 0.5% methyl green (Fisher Scientific, Fairlawn, N.J.) in 0.1 M sodium acetate, pH4. Oil Red 0 staining was quantified after extraction of the dye with 1 ml isopropanol and absorbance determination at 490 nm.

[6] = test system: senescent cells; test: Cisplatin-induced peripheral neuropathy (CIPN) in C57BL/6 mice, Von Frey assay and Hot Plate Analgesia Meter; assay type: in vivo; settings: 50 mg/kg/day i.p., 5 days per cycle, 2 cycles, mechanical sensitivity and thermal allodynia, FIG. 5-7
Protocol: as §2, with “C57BL/6” for “p16-3MR”, “Cisplatin” for “cisplatin”, “treatment” for “treatment. N=5-6 mice per group.”
Mice were treated as described in FIG. 1. The induction of CIPN was measured by analyzing the sensitivity to thermal allodynia using the Hot Plate Analgesia Meter on various day after Cisplatin treatment. N=10 for control group and 5 for Cisplatin-treated groups. ***p<0.001 vs. Control.
To determine the effect of senescent cells on the induction of CIPN, Cisplatin-treated mice were administered with vehicle or ABT263 at 50 mg/kg/day for 5 days per cycle for 2 cycles with an interval of 17 days between the cycles by i.p. injection at the indicated times after Cisplatin treatment. The induction of CIPN was measured by analyzing the mechanical sensitivity using the Von Frey assay (FIG. 5 and FIG. 6) and by analyzing the sensitivity to thermal allodynia using the Hot Plate Analgesia Meter (FIG. 7) the day before Cisplatin treatment and on various day after Cisplatin treatment.

[7] = molecular target: T1, Bcl-xL (Homo sapiens, UniProt Q07817); test: Protein degradation assay (western blot) in IR-SC WI38 cells; assay type: cell-based; settings: increasing concentrations for 18 hours (FIG. 3A); fixed concentration for increasing times (FIG. 3B)
T1 construct: endogenous in cells; host or cells: IR-SC WI38 cells
T1 sequence (Q07817 whole entry): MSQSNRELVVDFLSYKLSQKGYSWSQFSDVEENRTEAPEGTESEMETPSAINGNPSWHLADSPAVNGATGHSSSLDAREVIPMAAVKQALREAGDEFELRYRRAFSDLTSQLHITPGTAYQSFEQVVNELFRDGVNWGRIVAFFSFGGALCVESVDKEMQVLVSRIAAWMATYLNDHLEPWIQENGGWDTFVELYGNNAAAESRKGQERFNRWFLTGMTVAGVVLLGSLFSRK
Protocol: IR-SC WI38 cells were incubated with vehicle or increasing concentrations of XZ-14439 for 18 hours at increasing […] (FIG. 3A) and at a fixed concentration of XZ-14439 for increasing times (FIG. 3B). The cells were digested with 0.25% trypsin and 1 mM EDTA, and harvested in RIPA lysis buffer with 1% Phosphatase Inhibitor Cocktail 3 and 1% Protease Inhibitor Cocktail. An equal amount of protein (15-30 μg/lane) from each cell extract was resolved on a 12% SDS-PAGE gel. Proteins were blotted onto a NOVEX PVDF membrane by electrophoresis. The membranes were blocked with TBS-T blocking buffer (5% nonfat milk in 25 mM Tris-HCL, pH 7.4; 3 mM KCl; […] NaCl; and 0.05% Tween) and probed with primary antibodies (at a predetermined optimal concentration) overnight at 4° C. or for 1 hour at room temperature. […] After three washes with TBS-T, the proteins of interest were detected with ECL Western Blotting Detection Reagents and recorded with autoradiography (Pierce Biotech, Rockford, Ill., USA). […]
IR-SC WI38 (FIG. 4A) and RS4; 11 (FIG. 4B) cells were incubated with vehicle or increasing concentrations of compounds of Formula (I) or Formula (II) for 6 or 16 hours, at 1 μM (FIG. 4A) and 100 nm (FIG. 4B), respectively. […] After three washes with TBS-T, the proteins of interest were detected with ECL Western Blotting Detection Reagents and recorded with autoradiography. […]

[8] = femoral extracts, qPCR, FIG. 12B
[9] = bone marrow-derived stromal cells from treated mice, ex vivo culture, FIG. 13

Bcl-xL depletion in IR-SC WI38 cells, dose and time dependence [7]	Structure (SMILES)	Thrombocytopenia [1]	mRNA for OPG [2, 8]	mRNA for RANKL and MMP13 [2, 8]	Markers of cell senescence: protein levels of γ-H2AX, p16 and GATA4 ([2]; osteocyte-enriched femoral bone shafts, daily i.p. for 5 days, western blot, FIG. 12A)	Reversal of cisplatin-induced peripheral neuropathy [3]	Osteoclastogenic potential (TRAP-positive multinucleated cells) [4]	Expression of p21 [5, 9]	mRNA levels of RANKL, MMP-13, IL-1a and SDF-1 [5, 9]	Osteoblastogenic potential (Alizarin Red staining) ([5]; stromal cells from treated mice, 21 days in osteogenic medium, FIG. 14A and 14B)	Reversal of cisplatin-induced peripheral neuropathy [6]
–	CC1(C)CCC(c2ccc(Cl)cc2)=C(CN2CCN(c3ccc(C(=O)NS(=O)(=O)c4ccc(N[C@H](CCN5CCOCC5)CSc5ccccc5)c(S(=O)(=O)C(F)(F)F)c4)cc3)CC2)C1 [ABT-263, (R)-4-(4-((4′-chloro-4,4-dimethyl-3,4,5,6-tetrahydro-[1,1′-biphenyl]-2-yl-)methyl)piperazin-1-yl)-N-((4-((4-morpholino-1-(phenylthio)butan-2-yl)amin-o)-3-((trifluoromethyl)sulfonyl)phenyl)sulfonyl)benzamide]	cause thrombocytopenia	increased the mRNA for OPG	decreased the mRNA for RANKL and MMP13	decreased marker of cell senescence	reversed cisplatin-induced peripheral neuropathy (CIPN)	decreased osteoclastogenic potential	decreased expression of p21	decreased mRNA levels of RANKL and MMP-13, as well as IL-1a and SDF-1	promotes osteoblastogenesis	reversed Cisplatin-induced peripheral neuropathy (CIPN)
depletes Bcl-xL	CC1(C)CCC(c2ccc(Cl)cc2)=C(CN2CCN(c3ccc(C(=O)NS(=O)(=O)c4ccc(N[C@H](CCN5CCN(C(=O)CCCn6cc(COCCOCCOCCNc7cccc8c7C(=O)N(C7CCC(=O)NC7=O)C8=O)nn6)CC5)CSc5ccccc5)c(S(=O)(=O)C(F)(F)F)c4)cc3)CC2)C1 (stereo partly drawn) [XZ-14439, 4-(4-((4′-chloro-4,4-dimethyl-3,4,5,6-tetrahydro-[1,1′-biphenyl]-2-yl)methyl)piperazin-1-yl)-N-((4-(((2R)-4-(4-(4-(4-((2-(2-(2-((2-(2,6-dioxopiperidin-3-yl)-1,3-dioxoisoindolin-4-yl)amino)ethoxy)ethoxy)ethoxy)methyl)-1H-1,2,3-triazol-1-yl)butanoyl)piperazin-1-yl)-1-(phenylthio)butan-2-yl)amino)-3-((trifluoromethyl)sulfonyl)phenyl)sulfonyl)benzamide]	–	–	–	–	–	–	–	–	–	–
